Results: the NIST ThermoML archive (doi:10.1021/je600567z)
Numbers after ± are expanded uncertainties.

Test: activity coefficient (dimensionless); of the first substance listed, at infinite dilution; xn = mol fraction of the nth substance listed
Details: Liquid, x1 = 0
[1] = 333.15 K, Rayleigh distallation
[2] = 343.15 K, Rayleigh distallation
[3] = 353.15 K, circulation equilibrium still
[4] = 363.15 K, circulation equilibrium still
[5] = 371.15 K, circulation equilibrium still
[6] = 283.15 K, Relative Headspace Analysis
[7] = 293.15 K, Relative Headspace Analysis
[8] = 273.35 K, Relative Headspace Analysis

SMILES	activity coefficient (303.15 K, headspace analysis)	activity coefficient (313.15 K, headspace analysis)	activity coefficient [1]	activity coefficient [2]	activity coefficient [3]	activity coefficient [4]	activity coefficient [5]	activity coefficient [6]	activity coefficient [7]	activity coefficient [8]	activity coefficient (293.15 K, headspace analysis)	activity coefficient (323.15 K, headspace analysis)	activity coefficient (333.15 K, headspace analysis)	other results
CC(C)(C)O [2-methylpropan-2-ol] + O	14.4 ± 0.9	16.9 ± 1	21.8 ± 1.3	23.5 ± 1.4	25.4 ± 1.5	26.3 ± 1.6	27.4 ± 1.6							activity coefficient (299.15 K, headspace analysis): 13.1 ± 0.8; activity coefficient (323.15 K, Rayleigh distallation): 19.9 ± 1.2
CC(C)O [propan-2-ol] + O			11.8 ± 0.7		12.5 ± 0.8	12.9 ± 0.8	13.1 ± 0.8	5.37 ± 0.32	6.89 ± 0.41					activity coefficient (308.15 K, Relative Headspace Analysis): 8.84 ± 0.53
CCC(C)O (configuration not stated) [butan-2-ol] + O	26.8 ± 1.6	31.3 ± 1.9		38 ± 2.3		40.4 ± 2.4	37.8 ± 2.3	17.9 ± 1.1	22.6 ± 1.4	13.7 ± 0.8	22.5 ± 1.4	33.8 ± 2	36.9 ± 2.2	activity coefficient (303.15 K, inert gas stripping): 26.8 ± 1.6; activity coefficient (313.15 K, inert gas stripping): 30.8 ± 1.8; activity coefficient (323.15 K, inert gas stripping): 34.4 ± 2.1; activity coefficient (333.15 K, inert gas stripping): 35.7 ± 2.1; activity coefficient (353.15 K, Rayleigh distallation): 38.4 ± 2.3
CC(C)CO [2-methyl-1-propanol] + O	50.3 ± 3	54.1 ± 3.2				54.3 ± 3.3	52.2 ± 3.1	36.8 ± 2.2		31.6 ± 1.9	44.3 ± 2.7	57.6 ± 3.5	58.3 ± 3.5	activity coefficient (298.15 K, Relative Headspace Analysis): 47.4 ± 2.8
